In US10758534B2 (Vertex Pharmaceuticals Incorporated, priority 2014, dated 2020):

Molecular target: T1, F508del (Homo sapiens, UniProt P13569, DEL508-508)
T1 construct: expressed in transfected cells
Experiment: Protocol 2: FRET membrane potential optical assay (VIPR), identification of correction compounds
Format: cell-based
Settings: F508del CFTR modulator activity; compounds of Table 1; read-out: EC30
Method in brief: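 Mouse NIH3T3 cells, stable F508del; cpd 16 hrs, 37° C., serum-free; pos ctrl 27° C. 16 hrs. Rinse in Krebs Ringers, dye load, then add 10 μM forskolin + 20 μM genistein with Cl^−-free (gluconate) medium; depolarization by FRET voltage dyes.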

T1 sequence (P13569 with tags, fused parts or gaps DEL508-508): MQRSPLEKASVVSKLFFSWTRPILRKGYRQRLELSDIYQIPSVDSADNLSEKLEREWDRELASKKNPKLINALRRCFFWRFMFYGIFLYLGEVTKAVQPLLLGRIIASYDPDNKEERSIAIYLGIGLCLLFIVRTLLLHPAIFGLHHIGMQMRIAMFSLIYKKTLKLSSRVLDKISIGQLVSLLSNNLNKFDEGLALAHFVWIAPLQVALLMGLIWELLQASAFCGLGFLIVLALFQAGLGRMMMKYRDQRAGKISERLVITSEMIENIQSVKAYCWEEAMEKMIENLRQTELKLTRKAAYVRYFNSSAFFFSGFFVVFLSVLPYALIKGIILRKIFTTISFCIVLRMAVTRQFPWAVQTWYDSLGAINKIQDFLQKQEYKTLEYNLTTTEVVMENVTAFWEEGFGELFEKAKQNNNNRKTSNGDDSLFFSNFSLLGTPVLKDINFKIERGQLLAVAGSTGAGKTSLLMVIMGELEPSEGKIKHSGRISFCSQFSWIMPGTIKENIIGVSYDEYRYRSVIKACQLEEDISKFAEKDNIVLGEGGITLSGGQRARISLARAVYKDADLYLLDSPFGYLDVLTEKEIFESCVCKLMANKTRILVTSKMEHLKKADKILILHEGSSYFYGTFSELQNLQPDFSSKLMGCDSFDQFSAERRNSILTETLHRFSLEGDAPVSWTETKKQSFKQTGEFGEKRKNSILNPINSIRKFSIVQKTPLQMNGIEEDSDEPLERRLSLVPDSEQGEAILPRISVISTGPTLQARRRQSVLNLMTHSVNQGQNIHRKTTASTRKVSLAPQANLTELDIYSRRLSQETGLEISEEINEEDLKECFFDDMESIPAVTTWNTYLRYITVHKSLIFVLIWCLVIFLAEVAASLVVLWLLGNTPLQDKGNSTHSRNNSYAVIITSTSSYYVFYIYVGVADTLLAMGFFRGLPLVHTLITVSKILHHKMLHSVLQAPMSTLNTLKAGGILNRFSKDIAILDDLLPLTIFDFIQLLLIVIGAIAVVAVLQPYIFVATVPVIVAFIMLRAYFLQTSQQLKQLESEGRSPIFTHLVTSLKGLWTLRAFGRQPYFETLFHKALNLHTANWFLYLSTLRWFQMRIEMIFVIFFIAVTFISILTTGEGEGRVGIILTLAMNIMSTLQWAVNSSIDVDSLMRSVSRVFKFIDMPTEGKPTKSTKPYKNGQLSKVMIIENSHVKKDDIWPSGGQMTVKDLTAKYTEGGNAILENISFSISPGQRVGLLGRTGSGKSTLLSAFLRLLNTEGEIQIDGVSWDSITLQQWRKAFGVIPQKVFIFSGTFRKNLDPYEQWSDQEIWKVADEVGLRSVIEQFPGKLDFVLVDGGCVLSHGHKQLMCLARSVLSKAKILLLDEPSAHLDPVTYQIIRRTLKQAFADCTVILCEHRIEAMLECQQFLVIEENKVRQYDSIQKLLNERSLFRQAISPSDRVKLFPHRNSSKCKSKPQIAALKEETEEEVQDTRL

Row | Structure (SMILES) | EC30 [nM]
1 | C[C@@H]1CN(c2nc(-c3ccccc3C(F)(F)F)ccc2C(=O)NS(=O)(=O)c2cccnc2N)C(C)(C)C1 [Compound 2040, N-[(2-amino-3-pyridyl)sulfonyl]-6-[2-(trifluoromethyl)phenyl]-2-[(4S)-2,2,4-trimethylpyrrolidin-1-yl]pyridine-3-carboxamide] | < 3000
2 | COc1ccc(Nc2cccc(S(=O)(=O)NC(=O)c3cccnc3N3CC(C)CC3(C)C)n2)cc1OC (stereo not drawn) [Compound 2041, N—[[6-(3,4-dimethoxyanilino)-2-pyridyl]sulfonyl]-2-(2,2,4-trimethylpyrrolidin-1-yl)pyridine-3-carboxamide] | < 3000
3 | CC(C)COc1cc(F)cc(-c2ccc(C(=O)NS(=O)(=O)C3CCNC3)c(N3C[C@@H](C)CC3(C)C)n2)c1 (stereo partly drawn) [Compound 2042, 6-(3-fluoro-5-isobutoxy-phenyl)-N-pyrrolidin-3-ylsulfonyl-2-[(4S)-2,2,4-trimethylpyrrolidin-1-yl]pyridine-3-carboxamide] | < 3000
4 | Cc1ccc(-c2ccc(C(=O)NS(=O)(=O)c3cccc(N)n3)c(N3C[C@@H](C)CC3(C)C)n2)c(O)c1 [Compound 2043, N-[(6-amino-2-pyridyl)sulfonyl]-6-(2-hydroxy-4-methyl-phenyl)-2-[(4S)-2,2,4-trimethylpyrrolidin-1-yl]pyridine-3-carboxamide] | < 3000
5 | CC1CN(c2ncccc2C(=O)NS(=O)(=O)c2cccc(N(C)CC3CC3)n2)C(C)(C)C1 (stereo not drawn) [Compound 2044, N—[[6-[cyclopropylmethyl(methyl)amino]-2-pyridyl]sulfonyl]-2-(2,2,4-trimethylpyrrolidin-1-yl)pyridine-3-carboxamide] | < 3000
6 | C[C@@H]1CN(c2nc(-c3ccccc3F)ccc2C(=O)NS(=O)(=O)N2CC[C@H](N)C2)C(C)(C)C1 [Compound 2045, N-[(3S)-3-aminopyrrolidin-1-yl]sulfonyl-6-(2-fluorophenyl)-2-[(4S)-2,2,4-trimethylpyrrolidin-1-yl]pyridine-3-carboxamide] | 3000 to 10000
7 | C[C@@H]1CN(c2nc(-c3cc(F)ccc3O)ccc2C(=O)NS(=O)(=O)c2cccnc2N)C(C)(C)C1 [Compound 2046, N-[(2-amino-3-pyridyl)sulfonyl]-6-(5-fluoro-2-hydroxy-phenyl)-2-[(4S)-2,2,4-trimethylpyrrolidin-1-yl]pyridine-3-carboxamide] | < 3000
8 | C[C@@H]1CN(c2nc(C3CC(C)(C)CCC3O)ccc2C(=O)NS(=O)(=O)c2cccnc2N)C(C)(C)C1 (stereo partly drawn) [Compound 2047, N-[(2-amino-3-pyridyl)sulfonyl]-6-(2-hydroxy-5,5-dimethyl-cyclohexyl)-2-[(4S)-2,2,4-trimethylpyrrolidin-1-yl]pyridine-3-carboxamide] | 3000 to 10000
9 | C[C@@H]1CN(c2nc(-c3ccc(C(F)(F)F)cc3)ccc2C(=O)NS(=O)(=O)c2cccnc2N)C(C)(C)C1 [Compound 2048, N-[(2-amino-3-pyridyl)sulfonyl]-6-[4-(trifluoromethyl)phenyl]-2-[(4S)-2,2,4-trimethylpyrrolidin-1-yl]pyridine-3-carboxamide] | < 3000
10 | CC1CN(c2ncccc2C(=O)NS(=O)(=O)c2cccc(NC(C)c3cccc4ccccc34)n2)C(C)(C)C1 (stereo not drawn) [Compound 2049, N—[[6-[1-(1-naphthyl)ethylamino]-2-pyridyl]sulfonyl]-2-(2,2,4-trimethylpyrrolidin-1-yl)pyridine-3-carboxamide] | < 3000
11 | CCOc1ccccc1-c1ccc(C(=O)NS(=O)(=O)N2CC[C@H](N)C2)c(N2C[C@@H](C)CC2(C)C)n1 [Compound 2050, N-[(3S)-3-aminopyrrolidin-1-yl]sulfonyl-6-(2-ethoxyphenyl)-2-[(4S)-2,2,4-trimethylpyrrolidin-1-yl]pyridine-3-carboxamide] | < 3000
12 | CCOc1ccc(F)cc1-c1ccc(C(=O)NS(=O)(=O)c2ccc[nH]c2=O)c(N2C[C@@H](C)CC2(C)C)n1 [Compound 2051, 6-(2-ethoxy-5-fluoro-phenyl)-N-[(2-oxo-1H-pyridin-3-yl)sulfonyl]-2-[(4S)-2,2,4-trimethylpyrrolidin-1-yl]pyridine-3-carboxamide] | < 3000
13 | Cc1cc(-c2ccc(C(=O)NS(=O)(=O)c3cccnc3N)c(N3C[C@@H](C)CC3(C)C)n2)ccc1F [Compound 2052, N-[(2-amino-3-pyridyl)sulfonyl]-6-(4-fluoro-3-methyl-phenyl)-2-[(4S)-2,2,4-trimethylpyrrolidin-1-yl]pyridine-3-carboxamide] | < 3000
14 | CC1CN(c2ncccc2C(=O)NS(=O)(=O)c2cccc(NC3CCCC3)n2)C(C)(C)C1 (stereo not drawn) [Compound 2053, N—[[6-(cyclopentylamino)-2-pyridyl]sulfonyl]-2-(2,2,4-trimethylpyrrolidin-1-yl)pyridine-3-carboxamide] | < 3000
15 | C[C@@H]1CN(c2nc(-c3ccc4cc[nH]c4c3)ccc2C(=O)NS(=O)(=O)c2cccnc2N)C(C)(C)C1 [Compound 2054, N-[(2-amino-3-pyridyl)sulfonyl]-6-(1H-indol-6-yl)-2-[(4S)-2,2,4-trimethylpyrrolidin-1-yl]pyridine-3-carboxamide] | < 3000
16 | CC1CN(c2ncccc2C(=O)NS(=O)(=O)c2cccc(N3CCCC3C(F)(F)F)n2)C(C)(C)C1 (stereo not drawn) [Compound 2055, N—[[6-[2-(trifluoromethyl)pyrrolidin-1-yl]-2-pyridyl]sulfonyl]-2-(2,2,4-trimethylpyrrolidin-1-yl)pyridine-3-carboxamide] | < 3000
17 | C[C@@H]1CN(c2nc(O[C@H]3CCOC3)c(F)cc2C(=O)NS(=O)(=O)c2cccc(N)n2)C(C)(C)C1 [Compound 2056, N-[(6-amino-2-pyridyl)sulfonyl]-5-fluoro-6-[(3S)-tetrahydrofuran-3-yl]oxy-2-[(4S)-2,2,4-trimethylpyrrolidin-1-yl]pyridine-3-carboxamide] | 3000 to 10000
18 | CC1CN(c2ncccc2C(=O)NS(=O)(=O)c2cccc(OC3(C)CCCCCC3)n2)C(C)(C)C1 (stereo not drawn) [Compound 2057, N—[[6-(1-methylcycloheptoxy)-2-pyridyl]sulfonyl]-2-(2,2,4-trimethylpyrrolidin-1-yl)pyridine-3-carboxamide] | < 3000
19 | CC1CN(c2ncccc2C(=O)NS(=O)(=O)c2cccc(OC3CC4CCC3(C)C4(C)C)n2)C(C)(C)C1 (stereo not drawn) [Compound 2059, N—[[6-(1,7,7-trimethylnorbornan-2-yl)oxy-2-pyridyl]sulfonyl]-2-(2,2,4-trimethylpyrrolidin-1-yl)pyridine-3-carboxamide] | < 3000

Next, values leading:

Row | EC30 [nM] | Structure (SMILES)
20 | < 3000 | CCOC(=O)c1cccc(Nc2cccc(S(=O)(=O)NC(=O)c3cccnc3N3CC(C)CC3(C)C)n2)c1 (stereo not drawn) [Compound 2060, ethyl 3-[[6-[[2-(2,2,4-trimethylpyrrolidin-1-yl)pyridine-3-carbonyl]sulfamoyl]-2-pyridyl]amino]benzoate]
21 | < 3000 | CC1CN(c2ncccc2C(=O)NS(=O)(=O)c2cccc(Oc3ccc(Cl)c(Cl)c3)n2)C(C)(C)C1 (stereo not drawn) [Compound 2061, N—[[6-(3,4-dichlorophenoxy)-2-pyridyl]sulfonyl]-2-(2,2,4-trimethylpyrrolidin-1-yl)pyridine-3-carboxamide]
22 | < 3000 | CC1CN(c2ncc(/C=C/C3CCCCC3)cc2C(=O)NS(=O)(=O)c2cccc(N)n2)C(C)(C)C1 (stereo not drawn) [Compound 2063, N-[(6-amino-2-pyridyl)sulfonyl]-5-[(E)-2-cyclohexylvinyl]-2-(2,2,4-trimethylpyrrolidin-1-yl)pyridine-3-carboxamide]
23 | < 3000 | CC1CN(c2ncccc2C(=O)NS(=O)(=O)c2cccc(NCc3cccc(Cl)c3)n2)C(C)(C)C1 (stereo not drawn) [Compound 2064, N—[[6-[(3-chlorophenyl)methylamino]-2-pyridyl]sulfonyl]-2-(2,2,4-trimethylpyrrolidin-1-yl)pyridine-3-carboxamide]
24 | < 3000 | COc1cc(CO)cc(-c2ccc(C(=O)NS(=O)(=O)c3cccnc3N)c(N3C[C@@H](C)CC3(C)C)n2)c1 [Compound 2065, N-[(2-amino-3-pyridyl)sulfonyl]-6-[3-(hydroxymethyl)-5-methoxy-phenyl]-2-[(4S)-2,2,4-trimethylpyrrolidin-1-yl]pyridine-3-carboxamide]
25 | < 3000 | C[C@@H]1CN(c2nc(-c3ccccc3Cl)ccc2C(=O)NS(=O)(=O)c2cccnc2N)C(C)(C)C1 [Compound 2066, N-[(2-amino-3-pyridyl)sulfonyl]-6-(2-chlorophenyl)-2-[(4S)-2,2,4-trimethylpyrrolidin-1-yl]pyridine-3-carboxamide]
26 | < 3000 | Cc1ccc(F)cc1-c1ccc(C(=O)NS(=O)(=O)c2ccc[nH]c2=O)c(N2C[C@@H](C)CC2(C)C)n1 [Compound 2067, 6-(5-fluoro-2-methyl-phenyl)-N-[(2-oxo-1H-pyridin-3-yl)sulfonyl]-2-[(4S)-2,2,4-trimethylpyrrolidin-1-yl]pyridine-3-carboxamide]
27 | < 3000 | CC1CN(c2ncccc2C(=O)NS(=O)(=O)c2cccc(Nc3ccccn3)n2)C(C)(C)C1 (stereo not drawn) [Compound 2068, N—[[6-(2-pyridylamino)-2-pyridyl]sulfonyl]-2-(2,2,4-trimethylpyrrolidin-1-yl)pyridine-3-carboxamide]
28 | < 3000 | C[C@@H]1CN(c2nc(-c3ccccc3OC(F)(F)F)ccc2C(=O)NS(=O)(=O)N2CC[C@H](N)C2)C(C)(C)C1 [Compound 2070, N-[(3S)-3-aminopyrrolidin-1-yl]sulfonyl-6-[2-(trifluoromethoxy)phenyl]-2-[(4S)-2,2,4-trimethylpyrrolidin-1-yl]pyridine-3-carboxamide]
29 | < 3000 | CCOc1ccc(F)cc1-c1ccc(C(=O)NS(=O)(=O)c2cccnc2N)c(N2C[C@@H](C)CC2(C)C)n1 [Compound 2071, N-[(2-amino-3-pyridyl)sulfonyl]-6-(2-ethoxy-5-fluoro-phenyl)-2-[(4S)-2,2,4-trimethylpyrrolidin-1-yl]pyridine-3-carboxamide]
30 | 3000 to 10000 | COc1ccc(CCNc2cccc(S(=O)(=O)NC(=O)c3cccnc3N3CC(C)CC3(C)C)n2)cc1 (stereo not drawn) [Compound 2072, N—[[6-[2-(4-methoxyphenyl)ethylamino]-2-pyridyl]sulfonyl]-2-(2,2,4-trimethylpyrrolidin-1-yl)pyridine-3-carboxamide]
